Target: T1, threonine dehydrogenase (Tdh) (Escherichia coli, UniProt P07913)
T1 sequence (P07913 1-341): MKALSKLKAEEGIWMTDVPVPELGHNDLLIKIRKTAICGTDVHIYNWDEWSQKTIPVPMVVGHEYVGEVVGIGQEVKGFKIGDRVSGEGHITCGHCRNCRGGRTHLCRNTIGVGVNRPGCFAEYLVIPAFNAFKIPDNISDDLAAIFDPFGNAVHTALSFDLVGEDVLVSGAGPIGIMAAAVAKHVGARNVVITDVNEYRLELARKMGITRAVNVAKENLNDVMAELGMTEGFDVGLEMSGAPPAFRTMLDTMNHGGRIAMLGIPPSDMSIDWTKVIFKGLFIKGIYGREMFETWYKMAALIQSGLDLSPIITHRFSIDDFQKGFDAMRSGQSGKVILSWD
Assay: NADH formation at […] nm
Type: biochemical
Settings: Fe(II)-loaded enzyme; 30 mM threonine, 1 mM NAD+, 50 mM Tris-HCl pH 8.4, 25 °C, anaerobic

## C[C@@H](O)[C@H](N)C(=O)O [threonine]
  NADH formation at 340 nm: Tdh oxidizes threonine, with the production of NADH that can be monitored
